Experimental data as given in US9290485B2, “N-((6-amino-pyridin-3-yl)methyl)-heteroaryl-carboxamides” (NOVARTIS AG, priority 2010, dated 2016).

Target: T1, human plasma kallikrein (Homo sapiens (Human), UniProt P03952)
Test: biochemical
Conditions: not given

T1 sequence (P03952 whole entry, looked up): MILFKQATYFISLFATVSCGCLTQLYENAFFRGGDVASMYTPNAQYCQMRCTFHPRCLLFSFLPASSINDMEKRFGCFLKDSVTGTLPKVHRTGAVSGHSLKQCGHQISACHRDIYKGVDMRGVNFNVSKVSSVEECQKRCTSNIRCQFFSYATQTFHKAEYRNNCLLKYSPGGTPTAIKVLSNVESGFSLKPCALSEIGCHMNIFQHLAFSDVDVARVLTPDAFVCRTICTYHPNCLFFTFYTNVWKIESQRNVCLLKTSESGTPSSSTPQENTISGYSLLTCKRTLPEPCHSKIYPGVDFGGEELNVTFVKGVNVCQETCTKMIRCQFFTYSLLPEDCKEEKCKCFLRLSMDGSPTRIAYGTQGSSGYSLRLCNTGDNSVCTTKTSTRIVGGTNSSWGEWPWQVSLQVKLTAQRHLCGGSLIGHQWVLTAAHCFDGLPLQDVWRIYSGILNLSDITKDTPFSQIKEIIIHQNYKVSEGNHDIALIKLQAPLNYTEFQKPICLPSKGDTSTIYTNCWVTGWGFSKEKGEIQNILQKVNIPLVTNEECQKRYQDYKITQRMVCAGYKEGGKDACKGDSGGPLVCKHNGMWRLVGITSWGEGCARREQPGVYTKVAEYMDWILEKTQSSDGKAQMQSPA
T1 sequence (P03952 whole entry partner, looked up): as the sequence (P03952 whole entry, looked up) above

Row | SMILES | IC50 [nM]
1 | Cc1cc(N)nc(C)c1CNC(=O)c1cnn(Cc2cccc(CO)n2)c1 [Example 99, N-((6-amino-2,4-dimethylpyridin-3-yl)methyl)-1-((6-(hydroxymethyl)pyridin-2-yl)methyl)-1H-pyrazole-4-carboxamide] | 7000
2 | Cc1cc(N)nc(C)c1CNC(=O)c1cnn(Cc2nc3ccccc3nc2C)c1 [Example 104, N-((6-amino-2,4-dimethylpyridin-3-yl)methyl)-1-((3-methylquinoxalin-2-yl)methyl)-1H-pyrazole-4-carboxamide] | 113
3 | Cc1cc(N)nc(C)c1CNC(=O)c1cnn(Cc2ccc3ncc(Cl)cc3c2)c1 [Example 173, N-((6-Amino-2,4-dimethylpyridin-3-yl)methyl)-1-((3-chloroquinolin-6-yl)methyl)-1H-pyrazole-4-carboxamide] | 0.4

Same assay, conditions: read-out: % inhibition at 100 μM

Row | SMILES | inhibition at 100 µM [%]
4 | Nc1ccc(CNC(=O)c2cnn(Cc3ccccc3)c2)cn1 [Example 182, N-((6-Aminopyridin-3-yl)methyl)-1-benzyl-1H-pyrazole-4-carboxamide] | 38
5 | Cc1cc(N)nc(C)c1CNC(=O)c1c(C)c(C)n(S(=O)(=O)c2ccccc2)c1C [Example 183, N-((6-Amino-2,4-dimethylpyridin-3-yl)methyl)-2,4,5-trimethyl-1-(Phenylsulfonyl)-1H-pyrrole-3-carboxamide] | 39

Target: T1, human plasma kallikrein
Test: not given
Conditions: human plasma kallikrein 25 pM, substrate 0.5 uM, 1 hour pre-incubation at room temperature, read at t=60 min

Row | SMILES | IC50 [µM]
6 | Cc1ccc2cc(Cn3cc(C(=O)NCc4c(Cl)cc(N)nc4C)nn3)ccc2n1 [Example 175, N-((6-Amino-4-chloro-2-methylpyridin-3-yl)methyl)-1-((2-methylquinolin-6-yl)methyl)-1H-1,2,3-triazole-4-carboxamide] | 0.061
7 | Cc1cc(N)nc(C)c1CNC(=O)c1ccn(S(=O)(=O)c2ccccc2)c1C [Example 176, N-((6-Amino-2,4-dimethylpyridin-3-yl)methyl)-2-methyl-1-(phenylsulfonyl)-1H-pyrrole-3-carboxamide] | 45
8 | Cc1cc(N)nc(C)c1CNC(=O)c1cn(Cc2ncccn2)nn1 [Example 178, N-((6-Amino-2,4-dimethylpyridin-3-yl)methyl)-1-(pyrimidin-2-ylmethyl)-1H-1,2,3-triazole-4-carboxamide] | 67.3
9 | Cc1cc(N)nc(C)c1CNC(=O)c1ccn(Cc2ccccc2)c1C [Example 179, N-((6-Amino-2,4-dimethylpyridin-3-yl)methyl)-1-benzyl-2-methyl-1H-pyrrole-3-carboxamide] | 85.8
10 | Cc1nc(N)cc(OC(F)F)c1CNC(=O)c1cnn(Cc2ccccc2)c1 [Example 180, N-((6-Amino-4-(difluoromethoxy)-2-methylpyridin-3-yl)methyl)-1-benzyl-1H-pyrazole-4-carboxamide] | > 100
11 | Cc1nc(N)cc(Br)c1CNC(=O)c1cnn(Cc2ccccc2)c1 [Example 181, N-((6-Amino-4-bromo-2-methylpyridin-3-yl)methyl)-1-benzyl-1H-pyrazole-4-carboxamide] | 37
12 | Nc1ccc(CNC(=O)c2cnn(Cc3ccccc3)c2)cn1 [Example 182, N-((6-Aminopyridin-3-yl)methyl)-1-benzyl-1H-pyrazole-4-carboxamide] | > 100
13 | Cc1cc(N)nc(C)c1CNC(=O)c1c(C)c(C)n(S(=O)(=O)c2ccccc2)c1C [Example 183, N-((6-Amino-2,4-dimethylpyridin-3-yl)methyl)-2,4,5-trimethyl-1-(Phenylsulfonyl)-1H-pyrrole-3-carboxamide] | > 100
